Source: ChEMBL document CHEMBL3507680, “University of Dundee, Gates Library screen for HepG2 cell viability”

Assay: Human HepG2 cell viability assay in 384 well format
Assay type: toxicity, cell-based
Parameters: dose 125 nL, time 70.5 hour; concentration not given beside the values
Details: HepG2 cells, read-out: Inhibition

Row | Structure (SMILES) | cytotoxicity at 70.5 h
1 | O=C(Nc1cc(Cl)ccc1N1CCCCC1)c1ccccn1 | 7.77%
2 | Cc1cc(C)cc(OCCNC(=O)C(C)Sc2nncn2C)c1 (configuration not stated) | -10.3%
3 | O=C(c1cc(Br)c[nH]1)N1CCN(Cc2ccco2)CC1 | 5.49%
4 | CC(C)CNC(=O)C[S+]([O-])Cc1csc(C2CCCCC2)n1 (configuration not stated) | -13%
5 | CCC(CC(=O)NS(=O)(=O)C(C)C)c1ccccc1 (configuration not stated) | 11.1%
6 | O=C(Nc1c(N2CCCC2)cccc1N1CCCC1)c1cnsn1 | -16%
7 | CC(C)OCc1ccc(CNC(=O)NC2(CO)CCCC2)cc1 | -10.3%
8 | CC(C)Oc1cccc(CNC(=O)NC2(CO)CCCC2)c1 | -11.2%
9 | Cc1noc(C)c1CN1CCCCC1c1nc(-c2ccccc2)no1 (configuration not stated) | -9.69%
10 | COCCN(Cc1ccccn1)C(=O)CC1OCCc2ccsc21 (configuration not stated) | -1.83%
11 | CCCc1nn(Cc2csc(CC)n2)c(=O)o1 | -4.3%
12 | Cc1cc(C2CCCN2C(=O)COc2ccc(CC#N)cc2)on1 (configuration not stated) | -9.16%
13 | COc1ccc2c(c1)CC(NCc1cccc(OCC(N)=O)c1)CC2 (configuration not stated) | -10.5%
14 | Cn1cc(-c2noc(C3(C)CCOCC3)n2)cn1 | 11.7%
15 | COc1ccc(C2(c3nc(-c4cccnc4)no3)CCOCC2)cc1 | 34.4%
16 | CC(NC(=O)c1cnccn1)c1nnc2ccccn12 (configuration not stated) | -4.81%
17 | Cc1ccc(CN(Cc2cc(=O)n3cccc(C)c3n2)C(C)C)o1 | -14.3%
18 | Cc1ncc2c(n1)CCN(Cc1ncc(C(C)(C)C)o1)C2 | -11.4%
19 | CC(=O)N(C)CC(=O)Nc1cc(C(F)(F)F)c[nH]c1=O | -12.8%
20 | CCCC(NC(=O)c1cnccn1)c1nnc2ccccn12 (configuration not stated) | -11%
21 | CN(CCc1ccccn1)C(=O)Nc1cc(C(F)(F)F)c[nH]c1=O | 8.07%
22 | COc1cccc(N2CCN(C(=O)c3ccc(=O)n(C)c3)CC2)c1 | -3.95%
23 | Cn1cnc2c1CCN(c1ccnc(-c3ccccc3)n1)C2 | -18.3%
24 | Cc1nc(C(NC(=O)c2cc(C(C)C)[nH]n2)c2ccccc2)n[nH]1 (configuration not stated) | -11.7%

Row | Structure (SMILES) | cytotoxicity at 70.5 h
25 | CC(NC(=O)c1cc(C(C)C)[nH]n1)C(=O)Nc1ccccc1 (configuration not stated) | -6.22%
26 | Cc1ccc2c(c1C)OCC2NCc1cccc(C#N)c1 (configuration not stated) | 1.34%
27 | Cc1cnn(-c2ccc(S(=O)(=O)N(C)CC(F)F)cc2F)c1 | -8.45%
28 | O=C(CCNc1ccc(Br)cn1)NCc1ccncc1 | 0.0133%
29 | O=C(CCNc1ccc(Cl)cn1)NCc1ccncc1 | -8.13%
30 | CC(C)c1ncc(C(=O)N(C)c2ccc(Br)cn2)s1 | 5.45%
31 | CCc1c(NCc2cccnc2)cnn1CC(C)C | -5.5%
32 | CCOc1cccc(CNc2cnn(CC(C)C)c2CC)c1 | -7.62%
33 | CC(C)Oc1ccc(NCc2ccc([S+](C)[O-])cc2)c(F)c1 (configuration not stated) | 7.01%
34 | CN(CC(=O)NCC(CCO)c1ccccc1)C(=O)OC(C)(C)C (configuration not stated) | 27.5%
35 | COc1cccc2c1N(CC(=O)Nc1ccc(Cl)cn1)CCC2 | 0.717%
36 | CCn1cc(C(=O)NCC(C)(CC)N2CCOCC2)c2ccccc21 (configuration not stated) | 5.27%
37 | CCCn1nc(C(=O)NCc2nnc3n2CCC3)ccc1=O | 22.5%
38 | CC(C)(C)NC(=O)c1cnc(C(C)(C)C)s1 | 3.79%
39 | O=C1NCCCCC1NC(=O)C1(c2cccc(Cl)c2)CC1 (configuration not stated) | -0.123%
40 | CCn1cc(C(=O)NCC2(C(N)=O)CCOCC2)c2ccccc21 | 0.306%
41 | CC(Oc1ccc(F)c(F)c1)C(=O)N(CC(N)=O)C1CCCC1 (configuration not stated) | 27.6%
42 | O=C1NCCCCC1NC(=O)C1(c2ccccc2)CCOCC1 (configuration not stated) | -1.6%
43 | C=C(C)CN(CC)C(=O)c1cc(F)ccc1NS(C)(=O)=O | -0.0565%
44 | C=C(C)CN(CC)C(=O)c1cc(C)ccc1NS(C)(=O)=O | 3.16%
45 | O=C(NCc1cccc(F)c1)c1cccc(C(=O)N2CCCC2)n1 | 3.72%
46 | CCN(C)c1ccc(CNC(=O)CCn2cc(C)cn2)cc1F | -1.28%
47 | O=C(OCCNc1ncccn1)c1ccc(Cl)s1 | -3.07%
48 | CN(Cc1nnc2n1CCC2)C(=O)c1ccc(=O)n(C)n1 | 4.72%

Row | Structure (SMILES) | cytotoxicity at 70.5 h
49 | O=C(OCc1cccc(F)c1)c1cccc(C(=O)N2CCCC2)n1 | -1.08%
50 | COc1ccc(CCNC(=O)C2CCCOC2)c(Cl)c1 (configuration not stated) | 3.61%
51 | Cc1cc(C)n(C2CCCN(C(=O)c3ccnc(N(C)C)c3)C2)n1 (configuration not stated) | -0.851%
52 | CN(CC(=O)N1CCCC(n2ccnc2)C1)c1cnccn1 (configuration not stated) | -1.54%
53 | Cc1nnc(CN2CCCC2c2ccc3c(c2)OCCCO3)n1C (configuration not stated) | -5.99%
54 | Cn1c(Cl)cnc1CN1CCCC1c1ccc2c(c1)OCCO2 (configuration not stated) | 19.4%
55 | O=C1CCCCN1CCCNCc1cnc(C2CCC2)s1 | 0.195%
56 | CC(CCN1CCCC1=O)NCc1cnc(C2CCC2)s1 (configuration not stated) | -6.2%
57 | COc1cccc(-c2cc(NCc3nc(C)cs3)n(C)n2)c1 | -9.85%
58 | COc1cccc(-c2cc(NCc3nccn3C)n(C)n2)c1 | -6.65%
59 | Cc1nnc(C(C)N2CCN(Cc3noc(C(C)(C)C)n3)CC2)o1 (configuration not stated) | -3.37%
60 | COc1cc2c(cc1CNCc1cccnc1OC)OC(C)C2 (configuration not stated) | -8.84%
61 | Cc1cnn(C2CCCN(C(=O)c3cc[nH]n3)C2)c1 (configuration not stated) | -5.43%
62 | Cc1cnn(C2CCCN(C(=O)c3cc(-c4ccco4)[nH]n3)C2)c1 (configuration not stated) | -11.8%
63 | COc1ccc(S(=O)(=O)Nc2cccnc2-n2cncn2)c(C)c1 | -8.45%
64 | CC1CN(C)CCN1C(=O)c1cccn1Cc1cccs1 (configuration not stated) | -8.42%
65 | CCN(Cc1ccoc1)C(=O)Nc1ccccc1CN1CCOCC1 | 7.89%
66 | CC(C)(C)CN(CCO)C(=O)Nc1cccc(N2CCNC2=O)c1 | -4.71%
67 | CC(C)(C)CN(CCC#N)C(=O)Nc1cccc(N2CCNC2=O)c1 | -10.7%
68 | COc1ccc(CCCC(=O)N2CCCC(n3cncn3)C2)cc1 (configuration not stated) | -2.82%
69 | COc1ccc(C2CCN(CCCC#N)CC2)cc1 | 27.7%
70 | CNC(=O)c1sc(C(NC(=O)c2ccccc2)C2CC2)nc1C (configuration not stated) | -4.95%
71 | CCSc1cc(C(=O)NC(C)c2cccc(N3CCOC3=O)c2)ccn1 (configuration not stated) | 16.4%
72 | CC(NC(=O)c1ccc2c(c1)COC2)c1cccc(N2CCOC2=O)c1 (configuration not stated) | -0.257%

Row | Structure (SMILES) | cytotoxicity at 70.5 h
73 | Cc1nc(CN(C)S(=O)(=O)c2ccc(F)cc2Br)no1 | 14.6%
74 | COC(=O)c1ccc(Cn2cccc(C(F)(F)F)c2=O)s1 | -2.65%
75 | CCc1noc(C(C)N2CCN(Cc3noc(C4CC4)n3)CC2)n1 (configuration not stated) | -8.62%
76 | Cc1noc(C)c1CCCNC(=O)Nc1cccc([S+](C)[O-])c1 (configuration not stated) | -3.63%
77 | CC(C(=O)Nc1cccc(C(F)(F)F)c1)N(C)CCN1CCOCC1 (configuration not stated) | -8.82%
78 | Cc1ccc(S(=O)(=O)N(C)CC(C)O)c(F)c1 (configuration not stated) | 21.4%
79 | COC(=O)c1ccc(NC2CCN(CC(F)(F)F)C2=O)cc1C (configuration not stated) | 26.2%
80 | CCc1nc(CN2CCCN(C(=O)c3ccccc3)CC2)cs1 | -1.48%
81 | CC(NC(=O)CCNC(=O)c1ccoc1)c1ccccc1 (configuration not stated) | -7.29%
82 | Cc1nn(-c2ccccc2)c(C)c1CNC(=O)NC1CC1 | -3.17%
83 | Cc1nnc(NC(=O)N2CCC(N3CCCCC3)CC2)s1 | -8.18%
84 | NC(=O)CSc1ccccc1NCc1nc(C2CC2)no1 | 15%
85 | COc1ccc(OC)c(-c2csc(-c3cccc(C(=O)O)c3)n2)c1 | -16.7%
86 | COCCNC(=O)NCC(C)c1ccccc1OC (configuration not stated) | -8.45%
87 | CCc1nc(CN2CCCN(C(=O)c3cccn3C)CC2)cs1 | 2.1%
88 | O=C(Cn1cncn1)NCC1CCN(Cc2ccccc2Cl)CC1 | 2.75%
89 | CS(=O)(=O)c1cccc(S(=O)(=O)NC(=O)c2cscn2)c1 | -4.27%
90 | O=C(CCC(=O)N1CCOCC1c1ccccc1)c1cccs1 (configuration not stated) | -2.2%
91 | O=C(NS(=O)(=O)c1cccc(C(F)(F)F)c1)c1cnsn1 | -5.69%
92 | COc1cc2c(nn1)CCN(Cc1noc(-c3ccccc3)n1)C2 | 2.93%
93 | COc1cc2c(nn1)CCN(Cc1nc(Cc3ccccc3)no1)C2 | 2.14%
94 | CNC(=O)c1ccc(NC2CCN(CC(F)(F)F)C2=O)cc1Cl (configuration not stated) | -7.41%
95 | COc1c(CNCc2ccccc2CN2CCOCC2)c(C)nn1C | -7.68%
96 | CC(=O)N(Cc1ncc(C)o1)C1CCN(CCOc2ccccc2)C1 (configuration not stated) | 17.4%

Row | Structure (SMILES) | cytotoxicity at 70.5 h
97 | Cc1nc(CN(C)Cc2cc3c(cc2OC(F)F)OCO3)cs1 | -7.91%
98 | Cc1ccoc1CNCc1nnc2n1CC(C(F)(F)F)CC2 (configuration not stated) | -12.1%
99 | CCn1ccnc1CN1CCC(N(Cc2ncc(C)o2)C(C)=O)C1 (configuration not stated) | 4.91%
100 | CC(=O)N(Cc1ncc(C)o1)C1CCN(Cc2ccc(F)c(F)c2)C1 (configuration not stated) | -4.3%
101 | CC(=O)N(Cc1ncc(C)o1)C1CCN(Cc2nnc(C3CC3)o2)C1 (configuration not stated) | 10%
102 | O=C(NCc1cccnc1-n1cncn1)c1cncc(Br)c1 | 0.0598%
103 | CCSc1cc(C(=O)NC2CCN(C(=O)c3ccncc3)CC2)ccn1 | -0.0904%
104 | CCCN1CCC(NC(=O)c2ccnc(SCC)c2)CC1 | -0.521%
105 | CCn1cc(NC(=O)C2CCN(Cc3nc(C)c(C)o3)CC2)cn1 | -11.4%
106 | CN(C)c1cc(C(=O)NCc2cccnc2-n2cncn2)ccn1 | -16.1%
107 | Cc1ccc(CNC(CN2CCN(C)CC2)c2ccccc2)cc1C (configuration not stated) | 35.8%
108 | CCCNC(=O)CCNc1cncc(-n2nc(C)cc2C)n1 | -4.63%
109 | Fc1ccc(CNCc2nnc3n2CC(C(F)(F)F)CC3)c(F)c1 (configuration not stated) | -7.11%
110 | Cc1cccc2nc(CNC(=O)N3CCC(N4CC=CC4)C3)cn12 (configuration not stated) | -14.4%
111 | CC(=O)N(Cc1ncc(C)o1)C1CCN(CCc2ccncc2)C1 (configuration not stated) | 7.37%
112 | O=S(=O)(c1ccc(F)cc1F)N1CCCCC1c1nnc2n1CCCC2 (configuration not stated) | -12.7%
113 | Cc1cnn(CC2CCCCN2C(=O)CCCc2nc(C)no2)c1 (configuration not stated) | -5.29%
114 | Cc1ccc(C2CCCN2S(=O)(=O)N(C)Cc2cnccn2)o1 (configuration not stated) | -3.89%
115 | Cc1nc(CN2CCN(C(=O)CCC(=O)c3ccccc3)CC2)no1 | 12.6%
116 | CCn1c(C)nnc1CN(C)C1CCN(Cc2c(C)noc2C)C1 (configuration not stated) | -4.05%
117 | CCn1c(C)nnc1CN(C)C1CCN(Cc2ccon2)C1 (configuration not stated) | -1.86%
